Usually Ki stands for the equilibrium dissociation constant of an inhibitor or competing ligand from its target.

Where two headings read alike, the source gives them in different places.

The source of these data is PMC2721771 (Purinergic Signalling, 2008).

A short description of data set [1]: Storage stability of the trimethylstannyl precursor. The conditions noted are these: −8 °C for several months. Format: physicochemical.
For data set [2], the target named is T1, rat A3 adenosine receptor (Rattus norvegicus, UniProt P28647).
T1 sequence (P28647 1-320): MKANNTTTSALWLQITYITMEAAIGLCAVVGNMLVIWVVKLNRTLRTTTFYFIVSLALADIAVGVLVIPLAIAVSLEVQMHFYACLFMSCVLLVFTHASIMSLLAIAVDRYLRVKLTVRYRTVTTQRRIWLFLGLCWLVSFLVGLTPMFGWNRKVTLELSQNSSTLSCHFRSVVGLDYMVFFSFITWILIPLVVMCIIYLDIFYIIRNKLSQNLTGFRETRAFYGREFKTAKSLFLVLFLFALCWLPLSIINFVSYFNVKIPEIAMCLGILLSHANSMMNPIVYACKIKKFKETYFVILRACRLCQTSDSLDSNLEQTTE
Format: binding. The conditions noted are these: vs [125I]MRS1898 0.1 nM, rA3AR in CHO membranes, mean ± SEM.

Data set [3] deals with rA3AR. The conditions noted are these: cited from earlier work.
Data set [4] concerns the target hA3AR. The conditions noted are these: cited from earlier work.
Data set [5] deals with mouse A3AR. The conditions noted are these: cited from earlier work.
The target in data set [6] is rA1AR. The conditions noted are these: cited from earlier work.

`CNC(=O)[C@]12C[C@@H]1[C@@H](n1cnc3c(NCc4cccc([125I])c4)nc(Cl)nc31)[C@H](O)[C@@H]2O` [Compound 10]: the stability upon storage entry in data set [1] was “stable”.
`CCCOC(=O)c1c(-c2ccccc2)nc(CC)c(C(=O)SCC)c1CCC` [MRS1523, 5-propyl-2-ethyl-4-propyl-3-(ethylsulfanylcarbonyl)-6-phenylpyridine-5-carboxylate] registered a Ki in data set [2] of 518 ± 236 nM.
With `CNc1ncnc2c1ncn2[C@@H]1O[C@H](CO)[C@@H](O)[C@H]1O` [N^6-methyladenosine], the Ki was 6390 nM in data set [3] (rA3AR) and 9.3 nM in data set [4].
For the molecule `CCCCC#Cc1nc(NC)c2ncn([C@@H]3O[C@H](CO)[C@@H](O)[C@H]3O)c2n1` [[^3H]HEMADO, 2-hexyn-1-yl-N^6-methyladenosine], in data set [3] (rA3AR), the “effect on the rA3AR” value is “no effect”. The Kd in data set [4] is 1.1 nM.
On to `CCCn1cc2c(nc(NC(=O)Nc3ccc(OC)cc3)n3nc(-c4ccco4)nc23)n1` [[^3H]MRE 3008F20, 5-[[(4-methoxyphenyl)amino]carbonyl]amino-8-propyl-2-(2-furyl)-pyrazolo[4,3-e]1,2,4-triazolo[1,5-c]pyrimidine], for which the “binding to the rA3AR” value in data set [3] (rA3AR) is recorded as “do not bind effectively”. Also, in data set [5], the “binding to the mouse A3AR” value was “do not bind effectively”.
As for `CCNC(=O)[C@H]1O[C@@H](n2cnc3c(N)ncnc32)[C@H](O)[C@@H]1O` [[^3H]NECA, 5′-N-ethylcarboxamidoadenosine], the “binding affinity at the rA3AR” value in data set [3] (rA3AR) is given as “weak”.
In the case of `CC[C@@H]1CN2C(=O)N(C)c3nc(-c4ccccc4)[nH]c3C2=N1` [[^3H]PSB-11, (R)-4-methyl-8-ethyl-2-phenyl-imidazo[2,1-i]purin-5-one], the “binding to the rA3AR” value in data set [3] (rA3AR) was “do not bind effectively”. For the same molecule, the “binding to the mouse A3AR” value in data set [5] is “do not bind effectively”.
In the case of `CNC(=O)[C@H]1O[C@@H](n2cnc3c(NCc4ccc(N)c(I)c4)ncnc32)[C@H](O)[C@@H]1O` [[^125I]I-AB-MECA, N^6-(4-amino-3-iodobenzyl)-5′-N-methylcarboxamidoadenosine], the Kd in data set [3] (rat A3AR) was approximately 1 nM; in data set [3] (read-out: affinity for rA3AR, radioligand affinity, A3) it was 1.48 nM; in data set [6] (read-out: affinity for rA1AR, radioligand affinity, A1), 3.42 nM.
For the molecule `Nc1ccc(CCNc2ncnc3c2ncn3[C@@H]2O[C@H](CO)[C@@H](O)[C@H]2O)cc1I` [[^125I]I-APNEA, N^6-(4-amino-3-iodophenylethyl)-adenosine], the results for the Kd in data set [3] (rA3AR) and in data set [6] (rA1AR) were 15 nM and 1.32 nM, respectively.
